From PubChem BioAssay (NCI)
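48-hour exposure; five concentrations; linearly interpolated endpoints. At the TGI there is no net growth.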

Key:
Assay in all cases: NCI-60 cell line screen, 48 h
DU-145 prostate = system: DU-145 prostate
UO-31 renal = system: UO-31 renal
SK-MEL-28 melanoma = system: SK-MEL-28 melanoma
BT-549 breast = system: BT-549 breast
MDA-MB-435 = system: MDA-MB-435
OVCAR-8 ovarian = system: OVCAR-8 ovarian
COLO 205 colon = system: COLO 205 colon
786-0 renal = system: 786-0 renal
SF-539 CNS = system: SF-539 CNS
SF-268 CNS = system: SF-268 CNS
MALME-3M melanoma = system: MALME-3M melanoma
EKVX NSCLC = system: EKVX NSCLC
SW-620 colon = system: SW-620 colon
IGROV1 ovarian = system: IGROV1 ovarian
SNB-19 CNS = system: SNB-19 CNS
UACC-62 melanoma = system: UACC-62 melanoma
NCI/ADR-RES ovarian = system: NCI/ADR-RES ovarian
HCT-15 colon = system: HCT-15 colon
CCRF-CEM leukemia = system: CCRF-CEM leukemia
SR leukemia = system: SR leukemia
HOP-62 NSCLC = system: HOP-62 NSCLC
K-562 leukemia = system: K-562 leukemia
MDA-N = system: MDA-N
HS 578T breast = system: HS 578T breast
HOP-92 NSCLC = system: HOP-92 NSCLC
SK-MEL-5 melanoma = system: SK-MEL-5 melanoma
SK-MEL-2 melanoma = system: SK-MEL-2 melanoma
SNB-75 CNS = system: SNB-75 CNS
SN12C renal = system: SN12C renal
LOX IMVI melanoma = system: LOX IMVI melanoma
TK-10 renal = system: TK-10 renal
CAKI-1 renal = system: CAKI-1 renal
ACHN renal = system: ACHN renal
MCF7 breast = system: MCF7 breast
OVCAR-5 ovarian = system: OVCAR-5 ovarian
A549 NSCLC = system: A549 NSCLC
PC-3 prostate = system: PC-3 prostate
UACC-257 melanoma = system: UACC-257 melanoma
MOLT-4 leukemia = system: MOLT-4 leukemia
T-47D breast = system: T-47D breast
MDA-MB-231 breast = system: MDA-MB-231 breast
M14 melanoma = system: M14 melanoma
KM12 colon = system: KM12 colon
A498 renal = system: A498 renal
OVCAR-3 ovarian = system: OVCAR-3 ovarian
HCC-2998 colon = system: HCC-2998 colon
NCI-H23 lung = system: NCI-H23 lung
NCI-H522 lung = system: NCI-H522 lung
HCT-116 colon = system: HCT-116 colon
U251 CNS = system: U251 CNS
NCI-H226 lung = system: NCI-H226 lung
SK-OV-3 ovarian = system: SK-OV-3 ovarian
RPMI-8226 leukemia = system: RPMI-8226 leukemia
NCI-H460 lung = system: NCI-H460 lung
HL-60(TB) leukemia = system: HL-60(TB) leukemia
OVCAR-4 ovarian = system: OVCAR-4 ovarian
SF-295 CNS = system: SF-295 CNS
HT29 colon = system: HT29 colon

Measured: TGI

O=C(O)/C=N\Nc1nc2ccccc2[nH]1
> 100 µM: all assays above
